Here are results for eight compounds from ChEMBL document CHEMBL1201862, “PubChem BioAssay data set” (2004).

Test systems include T47D; UO-31; SF-539; ACHN; OVCAR-8; SK-MEL-2; SK-OV-3; Malme-3M; NCI-H226; A498; K562; HCC 2998; CCRF-CEM; BT-549; HT-29; MOLT-4; MCF7; SF-268; HCT-15.
Holding throughout (assay): NCI tumour cell line growth inhibition, 48 h

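Values below derive from 48-hour exposures of cells grown in 96-well plates, with endpoints linearly interpolated between the two concentrations bracketing the appropriate inhibition level. GI50 marks 50% less growth.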 Activity calls are given as the source filed them. Rule as the data show it: active = GI50 up to about 1.1 µM and inactive = higher.

On to `CC(=O)Nc1oc(C)c(C)c1S(=O)(=O)c1ccc(Cl)cc1`, for which the GI50 was 52.7 µM (inactive) in the test with T47D; 39 µM (inactive) with UO-31; 26.7 µM (inactive) in the test with SF-539; 46.2 µM (inactive) with ACHN; 45.7 µM (inactive) with OVCAR-8; 28.4 µM (inactive) in the test on SK-MEL-2. The GI50 in the test with SK-OV-3 is 52.5 µM (inactive); in the test with Malme-3M, 40.2 µM (inactive); in the test with NCI-H226, 34.4 µM (inactive); in the test on A498 it was > 100 µM (inactive); in the test with K562, 77.1 µM (inactive); in the test on HCC 2998, 41.3 µM (inactive). For the same compound, the GI50 in the test with CCRF-CEM is 79.8 µM (inactive); with BT-549 it was 29.2 µM (inactive); in the test with HT-29 it was 49 µM (inactive); in the test on MOLT-4, 39.4 µM (inactive); with MCF7, 19.5 µM (inactive); with SF-268, 33.7 µM (inactive). Besides, in the test with HCT-15, the GI50 was 41.8 µM.
`CC(=O)N[C@@H](Cc1ccc(O)cn1)C(=O)NCc1ccc2c(c1)OCO2`: the GI50 with T47D, in the test on UO-31, with SF-539, in the test with ACHN, in the test with OVCAR-8 and in the test on SK-MEL-2 was > 100 µM (inactive) throughout. The GI50 in the test with SK-OV-3, with Malme-3M, in the test on NCI-H226, in the test with A498, with K562 and with HCC 2998 was > 100 µM (inactive) throughout. Moreover, the GI50 in the test with CCRF-CEM, in the test with BT-549, in the test on HT-29, with MOLT-4, in the test with MCF7 and with SF-268 was > 100 µM (inactive) each time. This compound also returned a GI50 in the test with HCT-15 of over 100 µM.
For the compound `CCOC(OCC)C(CCc1ccccc1)c1c(N)nc(N)[nH]c1=O` (stereo not given), the GI50 in the test with T47D was 68.7 µM (inactive); in the test with UO-31, 34.8 µM (inactive); in the test with SF-539, > 100 µM (inactive); with OVCAR-8 it was > 100 µM (inactive); with SK-MEL-2, 53 µM (inactive); in the test on SK-OV-3, 25.9 µM (inactive). In addition, the GI50 in the test on Malme-3M is > 100 µM (inactive); with NCI-H226, 41.2 µM (inactive); in the test on A498 it was > 100 µM (inactive); in the test with K562, 24.7 µM (inactive); in the test on HCC 2998 it was 26.1 µM (inactive); in the test on CCRF-CEM, 53.6 µM (inactive). Besides, the GI50 with BT-549 is 86.9 µM (inactive); in the test on HT-29, 55.1 µM (inactive); in the test with MOLT-4, 34.3 µM (inactive); in the test with MCF7, 33.1 µM (inactive); in the test with SF-268, 52 µM (inactive); in the test on HCT-15 it was 68.7 µM.
For the compound `CCC(CCC(C)C1CCC2C3CC=C4CC(OC5OC(CO)C(O)C(O)C5O)CCC4(C)C3CCC12C)C(C)C` (stereo not given), the GI50 with T47D, in the test on UO-31, in the test on SF-539, with ACHN, with OVCAR-8 and in the test on SK-MEL-2 was > 100 µM (inactive) throughout. Also, the GI50 in the test with SK-OV-3, in the test on Malme-3M, in the test with NCI-H226, in the test on A498, with HCC 2998 and in the test with CCRF-CEM was > 100 µM (inactive) each time. Also, the GI50 was > 100 µM (inactive) in the test on BT-549; > 100 µM (inactive) in the test on HT-29; > 100 µM (inactive) in the test on MOLT-4; > 100 µM (inactive) in the test on MCF7; > 100 µM (inactive) in the test on SF-268; over 100 µM in the test on HCT-15.
Take `c1ccc2c(c1)Sc1ccccc1N2CCCN1c2ccccc2Sc2ccccc21`: the GI50 in the test on T47D is > 100 µM (inactive); in the test with UO-31, > 100 µM (inactive); with SF-539, > 100 µM (inactive); in the test on ACHN, 39.1 µM (inactive); in the test with OVCAR-8, 54.2 µM (inactive); in the test with SK-OV-3, > 100 µM (inactive). Besides, the GI50 with Malme-3M, in the test on NCI-H226, in the test on A498, in the test with K562, in the test on HCC 2998 and in the test with BT-549 was > 100 µM (inactive) in each case. In addition, the GI50 was > 100 µM (inactive) in the test with HT-29; 76.4 µM (inactive) in the test on MOLT-4; > 100 µM (inactive) in the test on MCF7; > 100 µM (inactive) with SF-268; over 100 µM in the test on HCT-15.
As for `CC(=O)NC1C(OCc2ccccc2)OC(CO)C(O)C1OC(C)C(=O)NC(C(=O)NC(CCC(=O)NCCCCNc1c2ccccc2nc2cccc([N+](=O)[O-])c12)C(N)=O)C(C)C` (stereo not given), the GI50 with T47D is 1.82 µM (inactive); in the test on UO-31 it was 2.89 µM (inactive); with SF-539, 3.3 µM (inactive); in the test with ACHN, 1.97 µM (inactive); in the test with OVCAR-8 it was 1.91 µM (inactive); in the test with SK-MEL-2, 2.52 µM (inactive). The GI50 in the test with SK-OV-3 was 8.73 µM (inactive); in the test on Malme-3M it was 1.82 µM (inactive); in the test with NCI-H226 it was 3.27 µM (inactive); with A498, 1.84 µM (inactive); in the test with K562, 0.458 µM (active); with HCC 2998, 1.01 µM (active). Moreover, the GI50 was 5.97 µM (inactive) in the test on BT-549; 1.14 µM (inactive) with HT-29; 0.515 µM (active) in the test on MOLT-4; 0.499 µM (active) with MCF7; 2.99 µM (inactive) in the test with SF-268; 3.21 µM with HCT-15.
As to `O=C1N/C(=N/N=C/C(O)C(O)C(O)C(O)CO)N/C1=C\c1c[nH]c2ccccc12` (stereo not given), the GI50 is 97.7 µM (inactive) in the test with T47D; > 100 µM (inactive) in the test on SF-539; > 100 µM (inactive) in the test with ACHN; > 100 µM (inactive) in the test with OVCAR-8; 28.3 µM (inactive) with SK-MEL-2; > 100 µM (inactive) in the test on SK-OV-3. In addition, the GI50 was > 100 µM (inactive) in the test on Malme-3M; > 100 µM (inactive) with NCI-H226; 38.3 µM (inactive) in the test on A498; 83.9 µM (inactive) with K562; > 100 µM (inactive) in the test with HCC 2998; 39.1 µM (inactive) in the test with CCRF-CEM. Besides, the GI50 in the test with BT-549 is > 100 µM (inactive); in the test on HT-29 it was 57.7 µM (inactive); in the test with MOLT-4, 93.8 µM (inactive); with MCF7 it was > 100 µM (inactive); in the test with SF-268, > 100 µM (inactive); in the test with HCT-15, over 100 µM.
As for `Cc1ccc(C(=O)O)c(/C=C2\Cc3ccc(C)cc3C2=O)c1`, the GI50 was 92 µM (inactive) in the test on T47D; 62.1 µM (inactive) in the test on UO-31; 20 µM (inactive) with SF-539; 55.2 µM (inactive) in the test on ACHN; 61.5 µM (inactive) with OVCAR-8; 32 µM (inactive) in the test with SK-MEL-2. Also, the GI50 was 95.9 µM (inactive) with Malme-3M; 28.2 µM (inactive) in the test with NCI-H226; 65.9 µM (inactive) with A498; 39.9 µM (inactive) with K562; 38.9 µM (inactive) in the test with HCC 2998; 51.3 µM (inactive) in the test on CCRF-CEM. Also, the GI50 was 12.9 µM (inactive) in the test on BT-549; 34.8 µM (inactive) with HT-29; 33.6 µM (inactive) in the test on MOLT-4; 63.5 µM (inactive) in the test with MCF7; 41 µM (inactive) in the test on SF-268; 56.4 µM with HCT-15.
